Results as given in a melting point compilation (Tetko et al.; mined from patent text by program, amines drawn as free bases though some values may be those of a salt).

Structure (SMILES)	melting point
CN(C)Cc1cc(C(=O)c2ccccc2)cc(C(C)(C)C)c1O	129 °C
O=C1NCCN(NC(=O)c2cc(OCc3ccccc3)c(OCc3ccccc3)cn2)C1=O	231 °C
O=C(NCc1ccccc1)Nc1nnc(-c2ccc(CN3CCCCCC3)s2)s1	232 to 233 °C
O=C1OC(=O)c2c1cccc2C(Cl)(Cl)Cl	121 to 124 °C
CCOP(=O)(Cc1ccc(NC(=O)Cc2cnoc2-c2ccccc2)cc1)OCC	132 to 133 °C
OCc1csc(N2CCSCC2)n1	83 to 84 °C
CCC1(CCn2ccnc2)SCCS1	118 to 121 °C
O=C(NN=Cc1ccc(Br)cc1)c1[nH]c2ccccc2c1Cc1ccccc1	227 to 229 °C
Nc1cc(CCC(=O)N2CCCCC2)ccc1O	149 to 150 °C
CNC(=S)N(C)Cc1ccc(Cl)nc1	109 to 110 °C
O=C(NCc1nccs1)c1ccnc(N2CCN(Cc3ccc(F)cc3)C2=O)c1	123 to 125 °C
CCOc1ccc(C(=O)Nc2ccccc2)cc1N(c1ccccc1)C(F)(F)F	184 to 185 °C
CN1CCC(=C2c3ccccc3C=Cc3ccc(Br)cc32)CC1	189 to 190 °C
NC(=S)Nc1cc2ccccc2cn1	225 to 227 °C
C[C@@H]1N=C(c2ccccc2)c2cc([N+](=O)[O-])ccc2N(C)C1=O	84 to 85 °C
O=C(O)c1cccnc1Cc1ccccc1	180 to 182 °C
CCCCCCn1ccc(N)nc1=O	216 to 217 °C
O=C1OC(=O)C(c2ccc(C(=O)O)cc2)=C1c1ccccc1	247 to 249 °C
CSc1nc(N2CCN(CCCCN3C(=O)CC4(CCCC4)CC3=O)CC2)ncc1F	83 to 85 °C
Cc1cc(-c2ncn3c(C(F)(F)F)cc(-c4cccc(C(F)(F)F)c4)nc23)ccn1	234 °C
CCn1c(-c2ccc(-n3ccnc3)cc2)cnc1[C@H](Cc1ccccn1)N(C=O)c1cc2cc(F)ccc2o1	80 to 84 °C
Nc1ccc2[nH]c(=O)cc(CCN3CCC(c4c[nH]c5ccccc45)CC3)c2c1	214 to 216 °C
Cc1nc2n(c(=O)c1CCBr)CCCS2	215 °C
CCCCCCC[C@H]1CC[C@H](COc2ccc(O)cc2)CC1	107 to 108 °C

Structure (SMILES)	melting point
CN1CCC(c2c[nH]c3ccc(CCS(N)(=O)=O)cc23)CC1	> 95 °C
CC(C)(C)N1C(=O)[C@@H]2C[C@H]1CN2C(=O)[C@@H](O)[C@H](Cc1ccccc1)NC(=O)[C@H](CC(N)=O)NC(=O)OCc1ccccc1	112 to 115 °C
CCCn1nc2c(N)nc3c(c2c1CCCc1cc(-c2cccnc2)no1)CCCC3	168 to 170 °C
O=C(OCc1cc2c3ccccc3[nH]c(=O)n2n1)c1ccccc1	262 to 265 °C
OC1(c2ccc(C(F)(F)F)cc2)CCNCC1	130 to 132 °C
COc1ccc2nc(C3=CCN(Cc4ccc(Cl)cc4)CC3)[nH]c2c1	203 to 205 °C
CC(C)(C)c1cc(C(=O)c2cccnc2)cc(C(C)(C)C)c1O	144 °C
CN1CCC(OC(c2cccc(N=[N+]=[N-])c2)c2nc3ccccc3[nH]2)CC1 (stereo not drawn)	53 °C
CCCC(CCC)C(=O)NC1CCc2ccccc21 (stereo not drawn)	133 to 134 °C
CCN/C(=C1/Sc2ccccc2C1=O)c1ccccc1CC	76 to 77 °C
CCOC(=O)C(C#N)NC(=O)OCc1ccccc1 (stereo not drawn)	111 to 112 °C
CC(=O)n1c(=O)n(CCN2CCC(CC(=O)c3ccc(F)cc3)CC2)c2ccccc21	149 °C
c1cc2c(cc1-c1nnc(SCC3CC3)o1)CCO2	57 to 58 °C
CS(=O)(=O)OCCC(c1ccccc1)c1ccccc1	83 to 85 °C
O=C(Nc1ccc(-n2nc(C(F)(F)F)cc2C(F)(F)F)cc1)c1ccno1	202 to 204 °C
N=C(N)CSc1nnc(S)s1	184 to 187 °C
CC(=O)N1CC(CCN2CCC(c3ccccc3)CC2)c2cc3c(cc21)OCO3 (stereo not drawn)	101 to 103 °C
Cc1nc(-n2ccc(OCc3cccnc3)cc2=O)sc1C(=O)NCc1ccccc1	214 to 216 °C
O=C1c2ccccc2-n2cnc(CO)c2[C@@H]2CCCN12	212 to 214 °C
COC(CCOS(=O)(=O)c1ccc(C)cc1)CCOS(=O)(=O)c1ccc(C)cc1	58 °C
CC1OC(=O)C(c2cccc(C(F)(F)F)c2)=C1O (stereo not drawn)	175 °C
O=C(NCc1cccc(C(F)(F)F)c1)c1ccc2n1Cc1ccccc1N(C(=O)CSc1ccc(Br)cc1)C2	102 °C
Cn1cc(C(=O)c2ccc3ccccc3c2)cc1C(=O)c1cccnc1	132 to 133 °C

Continued, values first:

melting point	Structure (SMILES)
151 to 153 °C	COc1ccc(S(=O)(=O)Nc2cccc3c2N(C)c2ccccc2O3)cc1
118 to 120 °C	O=C(Nc1ccc(Cl)nc1)c1ccccc1
87 to 89 °C	COC(=O)c1ccc(S(C)(=O)=O)c(-c2ccon2)c1C
175 to 177 °C	COC(=O)c1nc(-c2ccc(Cl)c(OC)c2F)c(F)c(NC(C)=O)c1Cl
141 °C	COC(=O)CN(C)c1nc(-c2ccc(-c3ccccc3)cc2)c(C(=O)OC)s1
250 to 254 °C	CCCc1cc2c(=O)n3cc(C(=O)O)ccc3nc2s1
185 to 187 °C	COC(=O)CCSCC(=O)c1ccc2[nH]c(=O)[nH]c2c1
122 to 124 °C	CCc1cc2c(c(CC)n1)CCC(=O)N2Cc1ccc(Oc2ccccc2CC(=O)O)cc1
122 °C	CCCCN1C(=O)NC(Cc2cc(OC)c(OC)cc2OC)C1=O (stereo not drawn)
231 to 232 °C	COc1ccc(Cc2nc3n(c2Cc2ccc(OC)cc2)CCS3(=O)=O)cc1
118 °C	COc1cc(Cl)cnc1OCC#Cc1cccc(OCC#N)n1
61 to 76 °C	OC(c1ccc(Cl)cc1)C(Nn1cncn1)c1ccc(F)cc1F (stereo not drawn)
156 to 157 °C	COc1cc(-c2cc(=O)c3ccc(OCCCBr)cc3o2)cc(OC)c1OC
56 to 58 °C	Clc1ccccc1Oc1ccnc2c(Cl)cccc12
135 to 136 °C	CCCOc1ccc(S(=O)(=O)N2CCN(CCOC(=O)OCC)CC2)cc1-c1nc2c(CCC)cn(CC)c2c(=O)[nH]1
149 to 150 °C	CCOc1nc2ccccc2nc1NC(=O)N1CCN(c2cc(OC)cc(OC)c2)CC1
153 °C	COc1ccc(-c2cc(-c3ccc(F)cc3)ccc2C(=O)N2CCOCC2)cc1OC
136 to 137 °C	COc1ccc(C2=CC(=O)CC2)cc1OC1CCCC1
206 °C	CCS(=O)(=O)Nc1cc(-n2ncc(N(C)C)c(Cl)c2=O)c(F)cc1C#N
125 to 128 °C	CCCCNC(=O)c1cccc(NC(=O)NS(=O)(=O)c2ccc(C)cc2)c1
120 to 121 °C	COC(CCN(C(=O)OC(C)(C)C)c1cc(OCc2ccccc2)c2ncccc2c1I)OC
104 °C	CCOC(=O)Oc1ccc(S(=O)(=O)N2c3c(C)cccc3-n3cccc3C2CC)cc1 (stereo not drawn)
215 to 216 °C	COC(=O)c1ccc2nc3cc(C)sc3c(=O)n2c1
257 to 258 °C	Cc1c(S(=O)(=O)Nc2ccc(-c3nc(C(=O)O)cs3)cc2S(C)(=O)=O)sc2ccc(F)cc12
92 °C	COc1ccc(C(=O)N2CCCC2=O)cc1OCc1ccccc1
209 to 211 °C	CNC(=O)c1ccc(C2=N[C@H]3CCCC[C@H]3c3cc(OC)c(OC)cc32)cc1 (racemic)

melting point	Structure (SMILES)
170 to 171 °C	CC#CCOc1cc(/C=C/C(=O)Nc2ccccc2C(=O)O)ccc1OC
66 to 68 °C	CCOC(=O)CNC(=O)n1nc(Oc2cccc(C(F)(F)F)c2)cc1C
219 to 221 °C	O=C(O)COc1ccc2c(-c3ccccc3)noc2c1Cl
180 to 181 °C	COC(=O)c1ccc2c(=O)n(CC(C)C)c(CNC(=O)OC(C)(C)C)c(-c3ccccc3F)c2c1
70 to 72 °C	CCCCCCC(=N)NC(=S)Nc1ccc(OC)cc1
181 to 183 °C	CC(=O)OCc1ccc2oc(=O)c(C(=O)Oc3ccccc3C#N)cc2c1
224 to 225 °C	Cc1ccnc(C(=O)c2[nH]c3cc(Cl)ccc3c2NC(=O)CCl)c1
182 to 184 °C	COc1cc(C2c3cc4c(cc3C(NC3=CC(=O)N(Cc5ccc(F)cc5)C3=O)C3COC(=O)C23)OCO4)cc(OC)c1O[Si](C)(C)C(C)(C)C (stereo not drawn)
242 to 245 °C	NC(=O)c1c2ccsc2nc2c1c1ccccc1n2Cc1ccccc1
255 to 257 °C	CN(Cc1cccc2c1CN(C1CCC(=O)NC1=O)C2=O)C(=O)Nc1ccc(Cl)cc1 (stereo not drawn)
179 to 183 °C	COC(=O)CCC(=O)OC(=C1C(=O)N(C(N)=O)c2cc(Cl)c(F)cc21)c1cccs1
103 to 104 °C	COCOc1cccc(-c2ccc(-c3ccc(C(=O)O)cc3)cc2-c2ccc3c(c2)C(C)(C)CCC3(C)C)c1
83 to 84 °C	CCOC(=O)CON(C)C(=S)Nc1cc(Cl)ccc1C
193 °C	Cc1csc2nc(Sc3ccccc3NC(=O)N[C@@H](Cc3ccc(NC(=O)c4c(Cl)cncc4Cl)cc3)C(=O)O)cnc12
271 to 272 °C	CC(=O)Nc1c(I)c(C(N)=O)c(I)c(C(=O)NCC(=O)O)c1I
149 to 150 °C	COCN1C(C)=C(C(=O)OC)C(c2cccc(Cl)c2Cl)C(C(=O)OCOC(=O)C(C)(C)C)=C1C (single isomer, unassigned; (+))
74 to 76 °C	CCc1cccc2nc(N[C@@H](CC(C)C)C(=O)OC)oc(=O)c12
> 300 °C	O=C1Cc2cc([N+](=O)[O-])c(NC(=O)c3ccncc3)cc2N1
59 to 62 °C	CCOC(=O)Cc1c2cc(F)ccc2n2c(-c3ccc(SC)cc3)nccc12
143 to 147 °C	CC(=O)N(C(C)=O)c1c(Cl)c(C)nn1C(CCN1C(=O)c2ccccc2C1=O)=NOS(=O)(=O)c1ccc(C)cc1
199 to 200 °C	FC(F)(F)c1cc(Nc2nc3ccccc3o2)ccc1Cl
164 to 165 °C	CCCCc1ncc(/C=C2\C(=O)NC(=O)N2Cc2cccs2)n1Cc1ccc(C(=O)OC)cc1
> 250 °C	CN1C(=O)CCC(C)(C)c2ccc(NC(=O)c3ccc(C(=O)O)cc3)cc21
148 to 150 °C	O=C(O)c1c(C=C2CC2)c2ccccc2n1Cc1cccc(C(F)(F)F)c1
145 to 147 °C	COc1cc(-c2c(C)noc2C)cc2oc(=O)c(C)c(C)c12
